Results as given in patent EP4385980A1, “INDAZOLES AS INHIBITORS OF NAV1.8” (Grünenthal GmbH, priority 2022, dated 2024).

biological target: T1, human NaV1.8 (Homo sapiens, UniProt Q9Y5Y9); test: Electrophysiology: voltage-clamp recordings (whole-cell automated patch clamp, Qube384); format: cell-based; conditions: HEK-NaV1.8 with b3 recombinant cell line, ambient room temperature, read-out: Potency category (human NaV1.8 IC50)
T1 construct: expressed in transfected cells; host or cells: HEK
Procedure: The following NaV1.8 recombinant cell line was used for recordings: HEK-NaV1.8 (NM_006514.1) with b3 (NM_018400.3).
Sodium currents were measured using the patch clamp technique in the whole-cell configuration using the Qube384 (Sophion A/S, Copenhagen, Denmark) automated voltage clamp platform. "Multi hole" plates were used for the cell line expressing NaV1.8 while "single hole" plates were used for the recombinant cell lines expressing the other subtypes. Appropriate filters (for minimum seal resistance and minimum current size) and series resistance compensation (for high quality sodium channel recordings) were applied. Data was collected at ambient room temperature.
The recording […] solution contained (in mM): NaCl 145 mM, KCl 4 mM, CaCl2 2 mM, MgCl2 1 mM, HEPES 10 mM, Glucose 10 mM, pH 7.4 (NaOH). The […] recording solution contained (in mM): CsF 120 mM, CsCl 20 mM, NaCl 10 mM, EGTA 10 mM, HEPES 10 mM, pH 7.2 (CsOH). Currents were recorded at 25 kHz sampling frequency and filtered at 5 kHz. Series resistance compensation was applied at 65%.
Vehicle (VEH) is the control condition where cells are exposed to 0.3 % DMSO without compound. All runs include VEH controls being exposed to the same voltage protocols to assess non-compound related phenomena such as run down and then used to isolate compound dependent effects on currents.
To check for state-dependence inhibition, the following voltage-sequence was applied every 20 seconds: From a resting membrane potential of-120 mV, the first test pulse (P1; 20 ms to -10 mV) was applied to check for channels in the Resting State followed by a brief recovery (20 ms to -120 mV), then holding the membrane voltage to V1/2 (4 seconds at voltage to obtain half the channel at Rest and half Inactivated) with a subsequent second test pulse (P2; 20 ms to -10 mV) to check for channels in the Inactivated State, followed by another brief recovery (20 ms to -120 mV) and a final third test pulse (P3; 20 ms to -10 mV) to check for recovered channels.
To check for frequency-dependent inhibition, a 10 Hz protocol and a 20 Hz protocol were applied; namely,
From a resting membrane potential of -120 mV, 40-pulses (10 ms to -10 mV) was applied at 10 Hz (at 100 ms between pulses) and then at 20 Hz (at 50 ms between pulses).
Each parameter was recorded (P1, P2, P3, P40 from 10Hz and P40 from 20Hz) during a control period (lasting ~ 5 minutes) when establishing the baseline and during compound period (lasting ~ 12 minutes) when test compound (or vehicle) was applied. For each parameter, the value at the end of the compound period was normalized to the vehicle baseline; as follows Normalized Inhibition (NormCPD) = (CPD Valueend CPD period)/(VEH Valueend Control Period) [formula]
To adjust for any variance in the Na^+ current signal during the compound period (owing to cumulative inactivation independent of compound or shifts in biophysics over time), a dedicated segment of the recording wells in each 384 plate were dedicated to having only vehicle exposure. These vehicle-only recordings were used to correct for any apparent "run-up" or "run-down" in the experiment. Normalized Inhibition (NormVEH) = (VEH Valueend CPD period)/(VEH Valueend Control Period) [formula]
The adjusted inhibition was calculated as follows: % Inhibitioncorrected = 100 × (NormCPD −NormVEH)/(100−NormVEH) [formula]
Percent inhibition was determined and IC50 values were calculated using a 4 parameter logistic model within XLFit Software (IDBS, Boston MA): % Inhibitioncorrected = A + ((B−A))/((1 + (((x)/(C)))^D) [formula] where A and B are the maximal and minimum inhibition respectively, C is the IC50 concentration and D is the (Hill) slope.

T1 sequence (Q9Y5Y9 whole entry): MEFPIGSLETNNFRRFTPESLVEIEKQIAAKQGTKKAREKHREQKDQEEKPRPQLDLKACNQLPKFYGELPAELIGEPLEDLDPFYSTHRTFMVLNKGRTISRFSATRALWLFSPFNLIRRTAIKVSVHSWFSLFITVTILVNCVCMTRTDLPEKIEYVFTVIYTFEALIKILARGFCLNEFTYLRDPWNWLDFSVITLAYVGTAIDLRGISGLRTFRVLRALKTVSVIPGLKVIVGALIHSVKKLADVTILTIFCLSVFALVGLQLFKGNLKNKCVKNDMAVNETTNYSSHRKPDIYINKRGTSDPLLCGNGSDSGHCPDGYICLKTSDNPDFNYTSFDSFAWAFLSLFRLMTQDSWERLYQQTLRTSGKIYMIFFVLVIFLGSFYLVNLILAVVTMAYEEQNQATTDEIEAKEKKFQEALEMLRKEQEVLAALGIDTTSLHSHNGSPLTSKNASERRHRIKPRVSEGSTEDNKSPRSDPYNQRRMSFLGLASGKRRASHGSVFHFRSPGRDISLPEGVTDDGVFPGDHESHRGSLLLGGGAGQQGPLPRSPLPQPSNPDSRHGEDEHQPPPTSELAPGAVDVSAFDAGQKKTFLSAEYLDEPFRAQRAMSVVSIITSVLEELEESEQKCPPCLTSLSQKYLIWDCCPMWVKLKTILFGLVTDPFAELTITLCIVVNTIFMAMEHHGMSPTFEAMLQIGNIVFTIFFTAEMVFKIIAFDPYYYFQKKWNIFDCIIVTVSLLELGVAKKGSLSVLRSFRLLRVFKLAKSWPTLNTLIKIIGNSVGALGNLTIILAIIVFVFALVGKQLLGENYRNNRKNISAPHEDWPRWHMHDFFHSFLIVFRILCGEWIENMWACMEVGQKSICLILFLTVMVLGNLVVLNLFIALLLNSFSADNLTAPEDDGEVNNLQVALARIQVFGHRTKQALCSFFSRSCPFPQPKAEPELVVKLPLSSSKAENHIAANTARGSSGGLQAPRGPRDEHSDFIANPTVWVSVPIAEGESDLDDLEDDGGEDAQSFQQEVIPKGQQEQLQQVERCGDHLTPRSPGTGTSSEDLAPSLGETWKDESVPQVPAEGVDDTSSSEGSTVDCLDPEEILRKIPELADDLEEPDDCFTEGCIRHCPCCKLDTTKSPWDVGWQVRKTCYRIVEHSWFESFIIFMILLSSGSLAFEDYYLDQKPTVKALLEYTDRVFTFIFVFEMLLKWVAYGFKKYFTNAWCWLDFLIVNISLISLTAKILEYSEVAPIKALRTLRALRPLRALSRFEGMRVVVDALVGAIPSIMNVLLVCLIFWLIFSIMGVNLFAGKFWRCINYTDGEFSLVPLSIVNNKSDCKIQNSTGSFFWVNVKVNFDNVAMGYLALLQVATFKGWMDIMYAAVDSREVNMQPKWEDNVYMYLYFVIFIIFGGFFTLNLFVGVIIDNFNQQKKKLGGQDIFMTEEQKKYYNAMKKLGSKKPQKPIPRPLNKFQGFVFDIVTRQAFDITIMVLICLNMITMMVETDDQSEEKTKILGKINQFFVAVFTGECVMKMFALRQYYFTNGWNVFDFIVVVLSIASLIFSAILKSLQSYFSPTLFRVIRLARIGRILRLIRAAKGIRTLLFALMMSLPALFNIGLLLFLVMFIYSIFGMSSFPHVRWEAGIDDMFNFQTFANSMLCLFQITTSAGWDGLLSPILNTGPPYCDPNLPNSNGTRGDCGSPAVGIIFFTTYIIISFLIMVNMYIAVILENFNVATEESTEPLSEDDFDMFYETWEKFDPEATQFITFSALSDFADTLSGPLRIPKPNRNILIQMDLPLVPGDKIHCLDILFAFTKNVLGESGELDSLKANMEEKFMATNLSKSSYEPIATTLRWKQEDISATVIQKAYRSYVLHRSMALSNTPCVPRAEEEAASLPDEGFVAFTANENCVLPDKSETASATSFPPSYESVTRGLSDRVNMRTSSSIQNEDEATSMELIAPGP
T1 sequence (Q9NY72 23-215 partner): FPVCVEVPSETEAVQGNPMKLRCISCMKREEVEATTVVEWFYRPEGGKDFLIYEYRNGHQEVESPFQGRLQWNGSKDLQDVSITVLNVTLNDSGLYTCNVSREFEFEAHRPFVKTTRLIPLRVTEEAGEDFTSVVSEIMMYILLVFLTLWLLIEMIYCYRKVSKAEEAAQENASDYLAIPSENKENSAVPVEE

Row | Compound | IC50 [nM]
1 | C[C@@H](C1CCCCC1)n1nc2ccccc2c1C(=O)Nc1cccc(S(C)(=O)=O)c1 (single isomer, unassigned) [SC-74a] | 100 to 1000
2 | Cc1ccc2nn(CC3CCCCC3)c(C(=O)Nc3cccc(S(C)(=O)=O)c3)c2c1 [SC-46, 2-(cyclohexylmethyl)-5-methyl-N-(3-methylsulfonylphenyl)indazole-3-carboxamide] | 100 to 1000
3 | CS(=O)(=O)c1cccc(NC(=O)c2c3ccc(F)cc3nn2CC2CCC3(CC2)CC3)c1 [SC-70, 6-fluoro-N-(3-methylsulfonylphenyl)-2-(spiro[2.5]octan-6-ylmethyl)indazole-3-carboxamide] | 1000 to 10000
4 | O=C(Nc1cc[nH]c(=O)c1)c1c2ccccc2nn1CC1CCC1 [SC-12, 2-(cyclobutylmethyl)-N-(2-oxo-1,2-dihydropyridin-4-yl)-2H-indazole-3-carboxamide] | 1000 to 10000
5 | Cc1ccc(Cl)c2c(C(=O)Nc3cccc(S(N)(=O)=O)c3)n(CC3CCCCO3)nc12 (single isomer, unassigned) [SC-84a, 4-chloro-7-methyl-N-(3-sulfamoylphenyl)-2-((tetrahydro-2H-pyran-2-yl)methyl)-2H-indazole-3-carboxamide] | ≤ 100
6 | NS(=O)(=O)c1cccc(NC(=O)c2c3cccc(F)c3nn2CC2CCCC(F)(F)C2)c1 (centres unmarked) [SC-81, 2-((3,3-difluorocyclohexyl)methyl)-7-fluoro-N-(3-sulfamoylphenyl)-2H-indazole-3-carboxamide] | ≤ 100
7 | C[C@H](C1CCCCC1)n1nc2ccccc2c1C(=O)Nc1cccc(S(C)(=O)=O)c1 (single isomer, unassigned) [SC-74b] | 1000 to 10000
8 | Cc1ccc(Cl)c2c(C(=O)Nc3ccnc(C(N)=O)c3)n(CC3CCC(F)(F)C3)nc12 (single isomer, unassigned) [SC-82a, N-(2-carbamoylpyridin-4-yl)-4-chloro-2-((3,3-difluorocyclopentyl)methyl)-7-methyl-2H-indazole-3-carboxamide] | ≤ 100
9 | O=C(Nc1ccnc(O)c1)c1c2ccccc2nn1CC1CCCCC1 [SC-10, 2-(cyclohexylmethyl)-N-(2-hydroxypyridin-4-yl)-2H-indazole-3-carboxamide] | 100 to 1000
10 | O=C(Nc1ccnc(O)c1)c1c2ccc(F)cc2nn1CC1CCC(F)(F)CC1 [SC-06, 2-((4,4-difluorocyclohexyl)methyl)-6-fluoro-N-(2-hydroxypyridin-4-yl)-2H-indazole-3-carboxamide] | 100 to 1000
11 | Cc1ccc(Cl)c2c(C(=O)Nc3ccnc(C(N)=O)c3)n(CC3CCC(F)(F)C3)nc12 (single isomer, unassigned) [SC-82b, N-(2-carbamoylpyridin-4-yl)-4-chloro-2-((3,3-difluorocyclopentyl)methyl)-7-methyl-2H-indazole-3-carboxamide] | ≤ 100
12 | CS(=O)(=O)c1cccc(NC(=O)c2c3c(F)cccc3nn2CC2CCCCC2)c1 [SC-47, 2-(cyclohexylmethyl)-4-fluoro-N-(3-methylsulfonylphenyl)indazole-3-carboxamide] | ≤ 100
13 | O=C(Nc1ccnc(O)c1)c1c2ccc(F)cc2nn1CC1CCCCC1 [SC-05, 2-(cyclohexylmethyl)-6-fluoro-N-(2-hydroxypyridin-4-yl)indazole-3-carboxamide] | ≤ 100
14 | CS(=O)(=O)c1cccc(NC(=O)c2c3ccccc3nn2CC2CCCC2)c1 [SC-67, 2-(cyclopentylmethyl)-7V-(3-methylsulfonylphenyl)indazole-3-carboxamide] | 100 to 1000
15 | CS(=O)(=O)c1cccc(NC(=O)c2c3ccccc3nn2CC2CCOCC2)c1 [SC-14, N-(3-methylsulfonylphenyl)-2-(oxan-4-ylmethyl)indazole-3-carboxamide] | 1000 to 10000
16 | CC(C)(O)c1cccc(NC(=O)c2c3ccccc3nn2CC2CCCCC2)c1 [SC-26, 2-(cyclohexylmethyl)-N-(3-(2-hydroxypropan-2-yl)phenyl)-2H-indazole-3-carboxamide] | 1000 to 10000
17 | O=C(Nc1ccnc(O)c1)c1c2cc(F)ccc2nn1CC1CCCCC1 [SC-32, 2-(cyclohexylmethyl)-5-fluoro-N-(2-hydroxypyridin-4-yl)indazole-3-carboxamide] | 100 to 1000
18 | NS(=O)(=O)c1cccc(NC(=O)c2c3ccccc3nn2CC2CCOCC2)c1 [SC-15, N-(3-sulfamoylphenyl)-2-((tetrahydro-2H-pyran-4-yl)methyl)-2H-indazole-3-carboxamide] | 100 to 1000
19 | Cc1cccc2c(C(=O)Nc3cccc(S(N)(=O)=O)c3)n(CC3CCC(F)(F)C3)nc12 (centres unmarked) [SC-80, 2-((3,3-difluorocyclopentyl)methyl)-7-methyl-N-(3-sulfamoylphenyl)-2H-indazole-3-carboxamide] | ≤ 100
20 | Cc1ccc2nn(CC3CCCCC3)c(C(=O)Nc3cc[nH]c(=O)c3)c2c1 [SC-48, 2-(cyclohexylmethyl)-5-methyl-N-(2-oxo-1,2-dihydropyridin-4-yl)-2H-indazole-3-carboxamide] | 1000 to 10000
21 | O=C(Nc1ccnc(O)c1)c1c2cccc(C(F)(F)F)c2nn1CC1CCCCC1 [SC-42, 2-(cyclohexylmethyl)-N-(2-hydroxypyridin-4-yl)-7-(trifluoromethyl)indazole-3-carboxamide] | ≤ 100
22 | CS(=O)(=O)c1cccc(NC(=O)c2c3ccccc3nn2CC2CCC(F)(F)CC2)c1 [SC-22, 2-[(4,4-difluorocyclohexyl)methyl]-N-(3-methylsulfonylphenyl)indazole-3-carboxamide] | 100 to 1000
23 | NS(=O)(=O)c1cccc(NC(=O)c2c3ccccc3nn2CC2CCCO2)c1 (racemic) [SC-16, N-(3-sulfamoylphenyl)-2-((tetrahydrofuran-2-yl)methyl)-2H-indazole-3-carboxamide] | 1000 to 10000
24 | NC(=O)c1cccc(NC(=O)c2c3ccccc3nn2CC2CCCCC2)c1 [SC-17, N-(3-carbamoylphenyl)-2-(cyclohexylmethyl)indazole-3-carboxamide] | ≤ 100
25 | O=C(Nc1ccnc(O)c1)c1c2ccccc2nn1CC1CCC(F)(F)CC1 [SC-24, 2-[(4,4-difluorocyclohexyl)methyl]-N-(2-hydroxypyridin-4-yl)indazole-3-carboxamide] | 1000 to 10000
26 | CS(=O)(=O)c1cccc(NC(=O)c2c3ccc(F)cc3nn2CC2CC(F)(F)C2)c1 [SC-62, 2-[(3,3-difluorocyclobutyl)methyl]-6-fluoro-N-(3-methylsulfonylphenyl)indazole-3-carboxamide] | 100 to 1000
